{"source": "patent US20250099409A1", "about": "“TOPICAL THERAPEUTIC” (Beta Biofuel Solutions, LLC, priority 2022, published 2025)", "key": {"[1]": {"tested_on": "severe mouth sores, pain, and skin eruptions", "experiment": "Example 7: Patient G, oral spray in cancer patient on Taxotere and Carboplatin chemotherapy", "assay_type": "in vivo, human", "method": "Set up: The trial consisted of administering a topical therapeutic spray to a cancer patient receiving Taxotere and Carboplatin chemotherapy. The side effects of cancer treatment presented the patient with severe mouth sores, pain, and skin eruptions which prevented regular mastication and intake of food and some beverages. Patient G's tastebuds were also severely affected, and the taste was unreliable. […] About 250 mg/L concentration of sodium pyruvate oral spray was administered inside the mouth and throat at 1 ml per spray, two to three sprays per administration. […] The product was used ad hoc to provide continuous comfort as saliva reintroduced the chemicals causing discomfort. […] However, issues with taste were not improved with the topical therapeutic spray."}, "[2]": {"tested_on": "rhinitis, and burning in the nose and throat resulting from secondhand cigarette smoke", "experiment": "Example 1: Patient A, topical therapeutic spray to nasal cavities and throat", "assay_type": "in vivo, human", "method": "Set up: The trial consisted of administering a topical therapeutic spray to a patient suffering from rhinitis, and burning in the nose and throat resulting from persistent and long-term exposure to secondhand cigarette smoke. About 250 mg/L concentration of sodium pyruvate incorporated spray was administered to the nasal cavities and throat at about 1 ml per spray, administered two to three sprays per administration.\nThe spray treatment was re-applied a couple of hours later. […] The spray was applied prophylactically before bed."}, "[3]": {"tested_on": "epidermal disturbances from psoriatic plaques", "experiment": "Example 2: Patient B, topical therapeutic wipe on psoriatic plaques on the back", "assay_type": "in vivo, human", "method": "(§1) Set up: The trial consisted of administering a topical therapeutic wipe to patients suffering from epidermal disturbances from psoriatic plaques. […] About 250 mg/L concentration of sodium pyruvate formulated with glycerin emollient imbued was administered to the affected area via an imbued wipe. The treatment was applied twice a day, once in the morning and once in the evening."}, "[4]": {"tested_on": "epidermal disturbances from psoriatic plaques", "experiment": "Example 3: Patient C, roll-on on psoriatic plaques behind ears and scalp", "assay_type": "in vivo, human", "method": "as §1, with “spray” for “wipe”, “a patient” for “patients”, “emollient” for “emollient imbued”, “roll-on.” for “wipe.”"}, "[5]": {"tested_on": "redness and burning on the general epidermis and deep muscle pain post-radiation therapy", "experiment": "Example 4: Patient D, spray and wipe in breast cancer patient post-radiation therapy", "assay_type": "in vivo, human", "from_the_text": "Set up: The trial consisted of administering a topical therapeutic spray and wipe to a breast cancer patient suffering from redness and burning on the general epidermis and deep muscle pain post-radiation therapy treatment. The patient received 30 daily radiation treatments in just over a month. […] The topical therapeutic spray was used afterwards ad hoc."}, "[6]": {"tested_on": "severe burning, itching, and peeling in the urethral, vaginal, and anal areas", "experiment": "Example 5: Patient E, imbued wipe in patient on Taxotere and Carboplatin chemotherapy with monoclonal antibody infusion", "assay_type": "in vivo, human", "conditions": "continued administration of wipe", "method": "Set up: The trial consisted of administering a topical therapeutic imbued wipe to a patient receiving a concurrent Taxotere and Carboplatin chemotherapy, with monoclonal antibody infusion treatments. The side effects of cancer treatment presented the patient with severe burning, itching, and peeling in the urethral, vaginal, and anal areas due to the elimination of the chemicals via urine and stools. About 250 mg/L concentration of sodium pyruvate formulated with glycerin emollient wipe was used to clean the affected areas after elimination, in addition to when the discomforts were present.\nPatient E continued using the topical treatment concurrently with cancer therapy, and for about a month after."}, "[7]": {"tested_on": "redness, itchy splotches on the underside of the body, and fur-less areas around the ears due to ragweed pollen sensitivity", "experiment": "Example 6: Patient F, spray on dog with ragweed pollen sensitivity", "assay_type": "in vivo, Jack Russel Terrier", "method": "Set up: The trial consisted of administering a topical therapeutic spray to a 5-year-old Jack Russel Terrier suffering from redness, itchy splotches on the underside of the body, and fur-less areas around the ears due to ragweed pollen sensitivity. […] After cleaning with water and drying the affected areas, about 250 mg/L concentration of sodium pyruvate spray formulated with glycerin was applied to the undercarriage and ears.\nSummary: After the first administration, the redness subsided, and the dog relaxed within 15 minutes. The treatment was administered after each time the dog went outside and continued throughout the ragweed pollen season."}, "[8]": {"tested_on": "moderate sunburn on the face, shoulders, and arms", "experiment": "Example 8: Patient H, spray on moderate sunburn", "assay_type": "in vivo, human", "method": "Set up: The trial consisted of administering a topical therapeutic spray to a patient with moderate sunburn on the face, shoulders, and arms early in the summer season while working on a field project. The patient had used sunscreen, but due to the prolonged exposure, the effects of the sunburn were present. The face was particularly red as it was directly exposed to ultraviolet (UV) radiation and not covered by clothing. About 250 mg/L concentration of sodium pyruvate formulated with glycerin emollient spray was applied to the affected areas.\nThe spray was applied for another day until the redness subsided."}, "[9]": {"tested_on": "redness, burning, and skin inflammation after exposure to irritating vegetation, e.g., poison ivy", "experiment": "Example 9: Patient I, spray after exposure to irritating vegetation", "assay_type": "in vivo, human", "conditions": "about 250 mg/L with glycerin emollient spray, after the first administration", "method": "The affected area was cleaned with cold water without soap to remove the oils and waxes transferred from the plant. About 250 mg/L concentration of sodium pyruvate formulated with glycerin emollient spray was applied to the affected areas of the general epidermis.\nThe topical therapeutic spray was readministered ad hoc depending on the severity of the exposure."}, "[10]": {"tested_on": "burning throat due to atmospheric dryness, allergic reaction, or disease state reaction", "experiment": "Example 10: Patient J, oral spray for burning throat", "assay_type": "in vivo, human", "conditions": "about 250 mg/L oral spray, 1 ml per spray, two to three sprays, after the first administration", "method": "Set up: The trial consisted of administering a topical therapeutic spray to a patient suffering from a burning throat due to atmospheric dryness, allergic reaction, or disease state reaction. About 250 mg/L concentration of sodium pyruvate oral spray was administered inside the mouth and throat at 1 ml per spray, two to three sprays per administration.\nThe product was used ad hoc to provide continuous comfort."}}}
{"molecule": "O=C([O-])O.[Na+]", "note": "[baking soda]", "values": [{"measurement": "alleviation of mouth sores, pain and skin eruptions", "setting": "[1]; applied to the affected areas as recommended, before the topical therapeutic", "value": "did little to alleviate the problem"}]}
{"molecule": "CC(=O)C(=O)[O-].[Na+]", "note": "[sodium pyruvate, 2-oxopropanoic acid sodium salt]", "values": [{"measurement": "effect of the second treatment on burning", "setting": "[2]; about 250 mg/L spray re-applied a couple of hours later", "value": "complete alleviation of the burning to both the nose and throat"}, {"measurement": "time to reduced burning or itching in the affected nasal and throat areas", "setting": "[2]; about 250 mg/L spray, about 1 ml per spray, two to three sprays, after the first administration", "value": "≤ 15", "unit": "min"}, {"measurement": "recurrence of pain and burning", "setting": "[2]; spray also applied prophylactically before bed", "value": "never returned"}, {"measurement": "outcome with continuous administration", "setting": "[3]; about 250 mg/L with glycerin emollient, imbued wipe, twice a day", "value": "itching and burning did not return, and the skin surface returned to normal form"}, {"measurement": "time to reduced burning or itching", "setting": "[3]; about 250 mg/L with glycerin emollient, imbued wipe, twice a day, after administration", "value": "≤ 15", "unit": "min"}, {"measurement": "outcome when treatment was interrupted", "setting": "[3]; treatment interrupted", "value": "the plaques returned along with itching and burning"}, {"measurement": "outcome with continuous administration", "setting": "[4]; about 250 mg/L with glycerin emollient, imbued roll-on, twice a day", "value": "itching and burning did not return and the skin surface returned to normal form"}, {"measurement": "time to reduced burning and itching", "setting": "[4]; about 250 mg/L with glycerin emollient, imbued roll-on, twice a day, after administration", "value": "≤ 15", "unit": "min"}, {"measurement": "outcome when administration was interrupted", "setting": "[4]; administration interrupted", "value": "the plaques returned along with itching and burning"}, {"measurement": "time to reduction in burning", "setting": "[5]; about 250 mg/L with glycerin emollient, after the first administration via an imbued cloth wipe", "value": "≤ 30", "unit": "min"}, {"measurement": "blistering to the skin", "setting": "[5]; about 250 mg/L with glycerin emollient, imbued cloth wipe", "value": "without any blistering to the skin"}, {"measurement": "browning of the affected area (remark of radiation oncologist at follow-up visits)", "setting": "[5]; wipe, then spray ad hoc", "value": "dissipated more rapidly than usual"}, {"measurement": "sloughing of damaged skin", "setting": "[6]", "value": "ceased within a few days of continued administration"}, {"measurement": "time until the redness subsided and the dog relaxed", "setting": "[7]; about 250 mg/L spray with glycerin on undercarriage and ears, after the first administration", "value": "≤ 15", "unit": "min"}, {"measurement": "outcome when administration was interrupted", "setting": "[7]; during the pollen season, administration interrupted", "value": "the itching, redness, and scratching returned"}, {"measurement": "time to almost complete relief of pain and burn", "setting": "[1]; about 250 mg/L oral spray, 1 ml per spray, two to three sprays, after the first administration", "value": "≤ 30", "unit": "min"}, {"measurement": "consumption of food and drinks", "setting": "[1]; oral spray used ad hoc", "value": "able to regularly consume food and drinks without discomfort"}, {"measurement": "issues with taste", "setting": "[1]; oral spray used ad hoc", "value": "not improved"}, {"measurement": "sores, pain and discomfort with use of the spray", "setting": "[1]; oral spray used ad hoc", "value": "the sores resolved, and the pain and discomfort were managed"}, {"measurement": "time to reduced burning", "setting": "[8]; about 250 mg/L with glycerin emollient spray, after the first administration", "value": "≤ 15", "unit": "min"}, {"measurement": "blistering and peeling of the skin due to sunburn", "setting": "[8]; spray applied for another day until the redness subsided", "value": "aided in the prevention of blistering and peeling"}, {"measurement": "time to reduced burning and itching", "setting": "[9]", "value": "≤ 15", "unit": "min"}, {"measurement": "time to reduced burning, itching, and general discomfort", "setting": "[10]", "value": "≤ 15", "unit": "min"}]}
